This note sets out measurements from US11684599B2, “Very-long-chain polyunsaturated fatty acids, elovanoid hydroxylated derivatives, and methods of use” (Board of Supervisors of Louisiana State University and …, priority 2017, dated 2023).

Test [1] relates to rats with middle cerebral artery occlusion (MCAo). Description: Ex vivo MRI (T2WI) lesion, core and penumbra volumes after MCAo. The test is classed as in vivo, rat. To be noted: day 7, compared to CSF-treated group. As for the experimental part: (§1) Male Sprague-Dawley rats (Charles River Lab., Wilmington, Mass.) weighing 280-340 g were fasted overnight but allowed free access to water. Atropine sulfate (0.5 mg/kg, i.p.) was injected 10 mins before anesthesia. Anesthesia was induced with 3% isoflurane in a mixture of 70% nitrous oxide and 30% oxygen. All rats were orally intubated and mechanically ventilated. During ventilation, the animals were paralyzed with pancuronium bromide (0.6 mg/kg, i.p.). The catheters were implanted into the right femoral artery and vein for the blood sampling and infusion of drug. Serial analyses of arterial blood gases, plasma glucose, arterial blood pressure and heart beating rate were conducted before and during surgical procedure. Rectal (CMA/150 Temperature Controller, CMA/Microdialysis AB, Stockholm, Sweden) and cranial (temporalis muscle; Omega Engineering, Stamford, Conn.) temperatures were closely monitored before, during and after MCAo. Rectal temperature and body weight were monitored daily until sacrifice.
(§2) Rats underwent 2 h of right middle cerebral artery occlusion (MCAo) by an intraluminal-filament. In brief, the right common carotid artery (CCA) bifurcation was exposed through a midline neck incision and the occipital artery branches of the external carotid artery were isolated, ligated and dissected. After careful isolation of the internal carotid artery (ICA), a 3-0 monofilament coated with poly-L-lysine was advanced through the ICA to the MCA until mild resistance was felt. The neck incision was closed with a silk suture and the animals were then allowed to recover. After 2 h of MCAo, rats were re-anesthetized with the same anesthetic combination. Temperature probes were re-inserted, and intraluminal sutures were carefully removed. The animals given free access to food and water for 7 days.
(§3) Thirty minutes after suture removal, a brain infusion cannula was implanted into the right lateral ventricle for treatment administration in each rat. Rats were anesthetized with 3% isoflurane and were secured to a stereotaxic apparatus with skull leveled between bregma and lambda. A sterile stainless steel cannula (5-mm long) was implanted into the lateral ventricle using the stereotaxic coordinates (0.2 mm caudal to bregma, 2 mm lateral to midline, and 5 mm below the dura). Cannulas were removed after treatment was completed.
Elovanoids (ELV) as sodium salts (Na) or methyl esters (Me) were dissolved in artificial cerebral spinal fluid (CSF) and administered into right lateral ventricle 1 hour after 2 h of MCAo. The following ELVs were used: ELV-N32-Na, ELV-N32-Me, ELV-N34-Na and ELV-N34-Me (5 μg/[…]) or CSF (50 μl). All treatments were administered by a researcher blinded to the treatment groups. […]

For test [2] the test system is unchanged. Description: Immunohistochemistry (NeuN, GFAP, SMI-71, IgG) after MCAo. The class given is in vivo, rat. To be noted: for IgG staining intensity / IgG staining in the cortex: 7 days; for IgG staining intensity: compared with CSF-treated group; for IgG immunoreactivity in subcortex / IgG immunoreactivity in whole hemisphere (total): versus the vehicle group. As for the experimental part: as §1, §2, §3
Elovanoids (ELV) as sodium salts (Na) or methyl esters (Me) were dissolved in artificial cerebral spinal fluid (CSF) and administered into right lateral ventricle 1 hour after 2 h of MCAo. The following ELVs were used: ELV-N32-Na, ELV-N32-Me, ELV-N34-Na and ELV-N34-Me (5 μg/[…]) or CSF (50 μl). All treatments were administered by a researcher blinded to the treatment groups.
Brain edema was measured by the differences of ipsi- and contra-lateral hemispheres. Immunohistochemical procedures were performed on the adjacent sections to identify specific vascular and neuronal elements in the ischemic core and penumbra. The following antibodies were used: rat blood-brain barrier (SMI-71, BioLegend, San Diego, Calif.) as a vascular marker; glial fibrillary acid protein (GFAP, Agilent Tech. Santa Clara, Calif.) to label reactive astrocytes; and neuron-specific nuclear protein (NeuN, Chemicon/Millipore, Billerica, Mass.) and biotinylated anti-rat immunoglobulin (IgG) antibody (BioLegend, San Diego, Calif.) to detect BBB breakdown. The number of positive cells and immunopositive vessels were counted in the cortex and striatum at the level of the central lesion (bregma level −0.3 mm). Data were expressed as numbers of positive cells and vessels per high-power microscopic field (magnification ×40).
The images of sections were obtained using confocal laser microscope (LSM510, Carl Zeiss MicroImaging, Irvine, Calif.) following specific experimental protocols. The images were acquired with dimension 212.3 μm×212.3 μm using Zen software (Carl Zeiss MicroImaging). Image analysis was conducted using ImageJ software. […]

Structures are written as SMILES.

On to `CC/C=C\C[C@H](O)\C=C/C=C/C=C/[C@H](O)C/C=C\C/C=C\CCCCCCCCCCCCC(=O)[O-].[Na+]` [ELV-N32-Na, sodium (14Z,17Z,20R,21E,23E,25Z,27S,29Z)-20,27-dihydroxydotriaconta-14,17,21,23,25,29-hexaenoate], for which, in test [1], the “reduction of total lesion volume” value was 60%. Moreover, in test [2], the IgG staining intensity result is “similar”.
Consider `CC/C=C\C[C@H](O)\C=C/C=C/C=C/[C@H](O)C/C=C\C/C=C\CCCCCCCCCCCCCCC(=O)[O-].[Na+]` [ELV-N34-Na, sodium (16Z,19Z,22R,23E,25E,27Z,29S,31Z)-22,29-dihydroxytetratriaconta-16,19,23,25,27,31-hexaenoate], for which the “reduction of total lesion volume” value in test [1] was 99%. In addition, in test [2], the “IgG staining in the cortex” value is “significantly less IgG staining”, the “IgG immunoreactivity in subcortex” value is on record as “significantly reduced” and the “IgG immunoreactivity in whole hemisphere (total)” value was “significantly reduced”.
As for `CC/C=C\C[C@H](O)\C=C/C=C/C=C/[C@H](O)C/C=C\C/C=C\CCCCCCCCCCCCCCC(=O)OC` [ELV-N34-Me, methyl (16Z,19Z,22R,23E,25E,27Z,29S,31Z)-22,29-dihydroxytetratriaconta-16,19,23,25,27,31-hexaenoate], the “reduction of total lesion volume” value in test [1] is given as 91%. Further, in test [2], the “IgG staining in the cortex” value is given as “significantly less IgG staining”, the “IgG immunoreactivity in subcortex” value is recorded as “significantly reduced” and the “IgG immunoreactivity in whole hemisphere (total)” value was “significantly reduced”.
Consider `CC/C=C\C[C@H](O)\C=C/C=C/C=C/[C@H](O)C/C=C\C/C=C\CCCCCCCCCCCCC(=O)OC` [ELV-N32-Me, methyl (14Z,17Z,20R,21E,23E,25Z,27S,29Z)-20,27-dihydroxydotriaconta-14,17,21,23,25,29-hexaenoate], for which the “reduction of total lesion volume” value in test [1] is given as 56%. Moreover, in test [2], the IgG staining intensity result is listed as “similar”.
